Measured values published in patent US8389562B2, “Polymorphic forms of a 3-pyrrole substituted 2-indolinone” (Medichem, S.A., priority 2007, dated 2013).

Columns and labels:
[1] = European Public Assessment Report provided for SUTENT; cited from earlier work
[2] = solubility profile of sunitinib base as observed by applicants; format: physicochemical; conditions: sunitinib base obtained in the prior art (Form III); qualitative observation
Text: In this regard, the low solubility of sunitinib base Form III would involve the use of large amounts of suitable solvents or mixture of solvents and/or the use of particular conditions aimed to improve the solubility of sunitinib base Form III and/or long reaction times for processes using sunitinib, which may represent an important drawback, especially for processes on an industrial scale.

Row | SMILES | solubility class according to the biopharmaceutical classification [1] | solubility profile [2]
1 | CCN(CC)CCNC(=O)c1c(C)[nH]c(/C=C2\C(=O)Nc3ccc(F)cc32)c1C [sunitinib, N-[2-(diethylamino)ethyl]-5-[(Z)-(5-fluoro-1,2-dihydro-2-oxo-3H-indol-3-ylidine)methyl]-2,4-dimethyl-1H-pyrrole-3-carboxamide] | low solubility compound | 
2 | CCN(CC)CCNC(=O)c1c(C)[nH]c(/C=C2\C(=O)Nc3ccc(F)cc32)c1C [sunitinib base Form III, N-[2-(diethylamino)ethyl]-5-[(Z)-(5-fluoro-1,2-dihydro-2-oxo-3H-indol-3-ylidine)methyl]-2,4-dimethyl-1H-pyrrole-3-carboxamide] |  | low solubility profile
